Data reported in US9255100B2 (BAYER INTELLECTUAL PROPERTY GMBH, priority 2010, dated 2016).

The molecules below were run against T1, N-terminally GST-tagged human full length recombinant Mps-1 kinase (Homo sapiens, UniProt P33981) (assay: Mps-1 kinase assay (TR-FRET)). Settings: Mps1 IC50 [nM], 10 μM ATP, 1 μM peptide substrate, 60 min at 22° C.
T1 construct: N-terminally GST-tagged human full length recombinant Mps-1 kinase; purchased Invitrogen, Karslruhe, Germany PV4071
T1 sequence (P33981 1-857): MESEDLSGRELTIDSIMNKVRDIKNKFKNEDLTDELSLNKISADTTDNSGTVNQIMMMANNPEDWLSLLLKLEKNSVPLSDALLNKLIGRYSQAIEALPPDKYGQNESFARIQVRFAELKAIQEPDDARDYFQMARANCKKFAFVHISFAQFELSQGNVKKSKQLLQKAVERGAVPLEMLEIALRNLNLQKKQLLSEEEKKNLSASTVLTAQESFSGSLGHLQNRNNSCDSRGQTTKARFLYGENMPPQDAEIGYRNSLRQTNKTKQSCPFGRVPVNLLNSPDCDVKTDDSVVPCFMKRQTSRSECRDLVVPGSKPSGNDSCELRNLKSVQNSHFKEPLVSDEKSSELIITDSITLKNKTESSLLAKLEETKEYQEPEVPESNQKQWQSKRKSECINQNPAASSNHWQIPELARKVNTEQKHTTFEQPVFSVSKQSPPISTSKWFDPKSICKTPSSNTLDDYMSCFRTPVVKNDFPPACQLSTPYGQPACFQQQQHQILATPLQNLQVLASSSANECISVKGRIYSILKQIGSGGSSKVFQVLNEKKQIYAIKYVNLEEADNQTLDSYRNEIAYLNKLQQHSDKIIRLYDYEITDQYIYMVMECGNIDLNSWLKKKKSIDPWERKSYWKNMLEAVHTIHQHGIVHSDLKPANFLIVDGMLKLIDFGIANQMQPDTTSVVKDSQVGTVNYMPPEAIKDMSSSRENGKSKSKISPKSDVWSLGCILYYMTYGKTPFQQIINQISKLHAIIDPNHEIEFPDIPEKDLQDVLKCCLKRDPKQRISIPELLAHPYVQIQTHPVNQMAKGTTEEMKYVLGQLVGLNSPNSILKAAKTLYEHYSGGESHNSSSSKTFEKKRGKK
Type: biochemical
In short: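 GST-Mps-1 (full length, N-term tag) ~1 nM final, linear-range adjusted per lot; biotinylated peptide substrate. Detection: Eu-anti-pSer/Thr donor → SA-XLent acceptor TR-FRET, 1 h, 22° C. Inhibition of kinase activity.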
In the case of `Cc1cc(-c2cnc3c(NCC(C)(C)N(C)C)cc(Oc4cccc(F)c4)nn23)ccc1C(=O)NC1CC1` [Example 497, N-cyclopropyl-4-[8-{[2-(dimethyl-amino)-2-methylpropyl]amino}-6-(3-fluorophenoxy)imidazo [1,2-b]pyridazin-3-yl]-2-methyl-benzamide], the IC50 is reported as 0.2 nM.
Molecule `Cc1cc(-c2cnc3c(NCC(C)(C)N4CCOCC4)cc(Oc4cccc(F)c4)nn23)ccc1C(=O)NC1CC1` [Example 498, N-cyclopropyl-4-[6-(3-fluoro-phenoxy)-8-{[2-methyl-2-(morpholin-4-yl)propyl]amino}imidazo[1,2-b]pyridazin-3-yl]-2-methylbenzamide] has an IC50 of 0.3 nM.
`Cc1cc(-c2cnc3c(NCCN4CCCCC4)cc(Oc4cccc(F)c4)nn23)ccc1C(=O)NC1CC1` [Example 499, N-cyclopropyl-4-[6-(3-fluoro-phenoxy)-8-{[2-(piperidin-1-yl)ethyl]amino}imidazo[1,2-b]pyridazin-3-yl]-2-methyl-benzamide] was tested, and the IC50 was 0.2 nM.
With `Cc1cc(-c2cnc3c(NCCN4CCN(C)CC4)cc(Oc4cccc(F)c4)nn23)ccc1C(=O)NC1CC1` [Example 501, N-cyclopropyl-4-[6-(3-fluoro-phenoxy)-8-{[2-(4-methyl-piperazin-1-yl)ethyl]amino}imidazo[1,2-b]pyridazin-3-yl]-2-methylbenzamide] the IC50 was 0.1 nM.
`Cc1cc(-c2cnc3c(NCCN4CCCC4)cc(Oc4cccc(F)c4)nn23)ccc1C(=O)NC1CC1` [Example 502, N-cyclopropyl-4-[6-(3-fluoro-phenoxy)-8-{[2-(pyrrolidin-1-yl)ethyl]amino}imidazo[1,2-b]pyridazin-3-yl]-2-methyl-benzamide] showed an IC50 of 0.2 nM.
For `CNC(=O)N(C)CCCNc1cc(Oc2cccc(F)c2)nn2c(-c3ccc(C(=O)NC4CC4)c(C)c3)cnc12` [Example 503, N-cyclopropyl-4-[6-(3-fluoro-phenoxy)-8-({3-[methyl(methyl-carbamoyl)amino]propyl}amino)imidazo[1,2-b]pyridazin-3-yl]-2-methylbenzamide], the IC50 was 0.2 nM.
With `CC(=O)NCCNc1cc(Oc2cccc(F)c2)nn2c(-c3ccc(C(=O)NC4CC4)c(C)c3)cnc12` [Example 504, 4-[8-{[2-(acetylamino)ethyl]amino}-6-(3-fluorophenoxy)imidazo[1,2-b]pyridazin-3-yl]-N-cyclopropyl-2-methyl-benzamide] the IC50 was 0.2 nM.
`Cc1cc(-c2cnc3c(NCCCN4CCCCC4)cc(Oc4cccc(F)c4)nn23)ccc1C(=O)NC1CC1` [Example 505, N-cyclopropyl-4-[6-(3-fluoro-phenoxy)-8-{[3-(piperidin-1-yl)propyl]amino}imidazo[1,2-b]pyridazin-3-yl]-2-methyl-benzamide] gave an IC50 of 0.2 nM.
Work on `Cc1cc(-c2cnc3c(NCCCN4CCOCC4)cc(Oc4cccc(F)c4)nn23)ccc1C(=O)NC1CC1` [Example 506, N-cyclopropyl-4-[6-(3-fluoro-phenoxy)-8-{[3-(morpholin-4-yl)propyl]amino}imidazo[1,2-b]pyridazin-3-yl]-2-methyl-benzamide] yielded an IC50 of 0.1 nM.
Molecule `Cc1cc(-c2cnc3c(NCCCN4CCCC4)cc(Oc4cccc(F)c4)nn23)ccc1C(=O)NC1CC1` [Example 507, N-cyclopropyl-4-[6-(3-fluoro-phenoxy)-8-{[3-(pyrrolidin-1-yl)propyl]amino}imidazo[1,2-b]pyridazin-3-yl]-2-methyl-benzamide] has an IC50 of 0.2 nM.
For `Cc1cc(-c2cnc3c(NCCCS(C)(=O)=O)cc(Oc4cccc(F)c4)nn23)ccc1C(=O)NC1CC1` [Example 508, N-cyclopropyl-4-[6-(3-fluoro-phenoxy)-8-{[3-(methylsulfonyl)propyl]amino}imidazo[1,2-b]pyridazin-3-yl]-2-methyl-benzamide], the IC50 was 0.2 nM.
`CC(=O)NCCCNc1cc(Oc2cccc(F)c2)nn2c(-c3ccc(C(=O)NC4CC4)c(C)c3)cnc12` [Example 509, 4-[8-{[3-(acetylamino)propyl]amino}-6-(3-fluorophenoxy)imidazo[1,2-b]pyridazin-3-yl]-N-cyclopropyl-2-methyl-benzamide] showed an IC50 of 0.1 nM.
For `Cc1cc(-c2cnc3c(NCCc4nnn[nH]4)cc(Oc4cccc(F)c4)nn23)ccc1C(=O)NC1CC1` [Example 511, N-cyclopropyl-4-[6-(3-fluoro-phenoxy)-8-{[2-(1H-tetrazol-5-yl)ethyl]amino}imidazo[1,2-b]pyridazin-3-yl]-2-methyl-benzamide], the IC50 was 0.3 nM.
Work on `Cc1cc(-c2cnc3c(NCC(F)F)cc(Oc4cccc(F)c4)nn23)ccc1C(=O)NC1CC1` [Example 512, N-cyclopropyl-4-{8-[(2,2-difluoro-ethyl)amino]-6-(3-fluoro-phenoxy)imidazo[1,2-b]pyridazin-3-yl}-2-methylbenzamide] yielded an IC50 of 0.1 nM.
Work on `Cc1cc(-c2cnc3c(NCCCCN(C)C)cc(Oc4cccc(F)c4)nn23)ccc1C(=O)NC1CC1` [Example 513, N-cyclopropyl-4-[8-{[4-(dimethyl-amino)butyl]amino}-6-(3-fluoro-phenoxy)imidazo[1,2-b]pyridazin-3-yl]-2-methylbenzamide] yielded an IC50 of 0.2 nM.
With `Cc1cc(-c2cnc3c(NCC(F)(F)F)cc(Oc4cccc(F)c4)nn23)ccc1C(=O)NC1CC1` [Example 514, N-cyclopropyl-4-{6-(3-fluoro-phenoxy)-8-[(2,2,2-trifluoroethyl)amino]imidazo[1,2-b]pyridazin-3-yl}-2-methylbenzamide] the IC50 was 8 nM.
`Cc1cc(-c2cnc3c(NCCn4cccn4)cc(Oc4cccc(F)c4)nn23)ccc1C(=O)NC1CC1` [Example 515, N-cyclopropyl-4-[6-(3-fluoro-phenoxy)-8-{[2-(1H-pyrazol-1-yl)ethyl]amino}imidazo[1,2-b]pyridazin-3-yl]-2-methyl-benzamide] gave an IC50 of 0.4 nM.
For `Cc1ccc(F)cc1Oc1cc(NCCS(C)(=O)=O)c2ncc(-c3ccc(C(=O)NC4CC4)c(C)c3)n2n1` [Example 517, N-cyclopropyl-4-[6-(5-fluoro-2-methylphenoxy)-8-{[2-(methylsulfonyl)ethyl]amino}imidazo [1,2-b]pyridazin-3-yl]-2-methylbenzamide], the IC50 was 0.2 nM.
Work on `COc1ccc(Oc2cc(NCCS(C)(=O)=O)c3ncc(-c4ccc(C(=O)NC5CC5)c(C)c4)n3n2)cc1F` [Example 518, N-cyclopropyl-4-[6-(3-fluoro-4-methoxyphenoxy)-8-{[2-(methylsulfonyl)ethyl]amino}imidazo [1,2-b]pyridazin-3-yl]-2-methylbenzamide] yielded an IC50 of 0.1 nM.
With `COc1ccc(Oc2cc(NCCS(C)(=O)=O)c3ncc(-c4ccc(C(=O)NC5CC5)c(C)c4)n3n2)c(F)c1` [Example 519, N-cyclopropyl-4-[6-(2-fluoro-4-methoxyphenoxy)-8-{[2-(methylsulfonyl)ethyl]amino]imidazo [1,2-b]pyridazin-3-yl]-2-methylbenzamide] the IC50 was 0.1 nM.
`Cc1cc(-c2cnc3c(NCC(C)(C)N)cc(Oc4ccc(F)c(F)c4)nn23)ccc1C(=O)NC1CC1` [Example 520, 4-{8-[(2-amino-2-methylpropyl)amino]-6-(3,4-difluorophenoxy)imidazo[1,2-b]pyridazin-3-yl}-N-cyclopropyl-2-methylbenzamide] showed an IC50 of 0.2 nM.
In the case of `Cc1cc(-c2cnc3c(NCC(C)(C)N)cc(Oc4ccc(Cl)cc4)nn23)ccc1C(=O)NC1CC1` [Example 521, 4-{8-[(2-amino-2-methyl-propyl)amino]-6-(4-chloro-phenoxy)imidazo[1,2-b]pyridazin-3-yl}-N-cyclopropyl-2-methylbenzamide], the IC50 is reported as 0.3 nM.
`Cc1cc(-c2cnc3c(NCC(C)(C)N)cc(Oc4cccnc4)nn23)ccc1C(=O)NC1CC1` [Example 522, 4-{8-[(2-amino-2-methyl-propyl)amino]-6-(pyridin-3-yloxy)imidazo[1,2-b]pyridazin-3-yl}-N-cyclopropyl-2-methylbenzamide] was tested, and the IC50 was 1.8 nM.
With `Cc1cc(-c2cnc3c(NCCN(C)C)cc(Oc4ccc(Cl)cc4)nn23)ccc1C(=O)NC1CC1` [Example 523, 4-[6-(4-chlorophenoxy)-8-{[2-(dimethylamino)ethyl]amino}imidazo[1,2-b]pyridazin-3-yl]-N-cyclopropyl-2-methylbenzamide] the IC50 was 0.7 nM.
In the case of `Cc1cc(-c2cnc3c(NCCN(C)C)cc(Oc4cccnc4)nn23)ccc1C(=O)NC1CC1` [Example 524, N-cyclopropyl-4-[8-{[2-(dimethylamino)ethyl]amino}-6-(pyridin-3-yloxy)imidazo [1,2-b]pyridazin-3-yl]-2-methylbenzamide], the IC50 is reported as 2.3 nM.
For `Cc1cc(-c2cnc3c(NCCN(C)C)cc(Oc4ccc(F)c(F)c4)nn23)ccc1C(=O)NC1CC1` [Example 525, N-cyclopropyl-4-[6-(3,4-difluorophenoxy)-8-{[2-(dimethylamino)ethyl]amino}imidazo[1,2-b]pyridazin-3-yl]-2-methylbenzamide], the IC50 was 0.7 nM.
